The results in this text go back to PubChem BioAssay (NCI).

Some test systems named below: U251 CNS; NCI/ADR-RES ovarian; A498 renal; COLO 205 colon; MDA-N; HS 578T breast; SN12C renal; OVCAR-8 ovarian; SF-539 CNS; HOP-62 NSCLC; HCT-116 colon.
Common to all, as to test: inhibition of tumour cell growth, NCI panel, 48 h

“And” between values parts separate entries of the source, which are not always exact repeats. Equal entries are not always repeated.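 1) Cells in 96-well plates. 2) Compound, 48 h, 5 concentrations. 3) Linear interpolation between surrounding doses. 4) Unreached endpoint = highest concentration. GI50 = concentration required for 50% inhibition of growth. The concentration for full growth arrest is given as TGI.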

As to `Cc1cc2c(cc1Cl)SC(NNc1cnc3ccccc3n1)=NS2(=O)=O`, the TGI with U251 CNS was over 100 µM; in the test on NCI/ADR-RES ovarian it was over 100 µM; with A498 renal, 65.7 µM; with COLO 205 colon it was over 100 µM; in the test on MDA-N, over 100 µM; in the test with HS 578T breast, over 100 µM. The TGI was over 100 µM in the test on SN12C renal; over 100 µM in the test with OVCAR-8 ovarian; 87 µM in the test with SF-539 CNS; over 100 µM with HOP-62 NSCLC; over 100 µM in the test with HCT-116 colon.
In the case of `Cc1ccc(-n2cc(-c3ccc(Cl)cc3)c3c2N=CN2NC(c4ccco4)=NC32)cc1` (centres undefined), the TGI with U251 CNS was 20.8 µM; in the test with NCI/ADR-RES ovarian, 86.6 µM; with A498 renal it was 29.2 µM; in the test with COLO 205 colon, over 100 µM; in the test with MDA-N, over 100 µM; in the test with HS 578T breast, 7.16 µM. Besides, the TGI in the test with SN12C renal is over 100 µM; in the test on OVCAR-8 ovarian it was 27.5 µM; with SF-539 CNS, 51.3 µM; in the test with HOP-62 NSCLC, 24 µM; in the test with HCT-116 colon, 31.8 µM.
Take `CCN(C(=O)N[C@H](C(=O)N[C@@H](C)C(=O)OC)C(C)C)c1ccccc1`: the TGI was 86.6 µM in the test with U251 CNS; over 100 µM with NCI/ADR-RES ovarian; over 100 µM with A498 renal; 43.4 µM in the test with COLO 205 colon; over 100 µM with MDA-N; over 100 µM in the test with HS 578T breast. The TGI in the test on SN12C renal is over 100 µM; in the test on OVCAR-8 ovarian, 63.2 µM; with SF-539 CNS it was 48.4 µM; in the test on HOP-62 NSCLC it was over 100 µM; with HCT-116 colon, 68.6 µM.
As for `C=C1CC=CC(C)(C)C1C/C=C(\C)C(O)CBr` (centres undefined), the TGI in the test with U251 CNS was over 100 µM; in the test with NCI/ADR-RES ovarian, 63.2 µM; in the test on A498 renal, over 100 µM; in the test on COLO 205 colon, over 100 µM; in the test with MDA-N, over 100 µM; with HS 578T breast, over 100 µM. The TGI in the test with SN12C renal, in the test on OVCAR-8 ovarian, with SF-539 CNS, in the test on HOP-62 NSCLC and in the test on HCT-116 colon was over 100 µM each time.
`COn1cc(CO)c2ccccc21`: the TGI was over 100 µM in the test on U251 CNS; over 100 µM with NCI/ADR-RES ovarian; 3.67 µM in the test with A498 renal; over 100 µM with COLO 205 colon; over 100 µM in the test on MDA-N; over 100 µM in the test with HS 578T breast. In addition, the TGI with SN12C renal, in the test on OVCAR-8 ovarian, in the test on SF-539 CNS, in the test on HOP-62 NSCLC and in the test on HCT-116 colon was over 100 µM throughout.
In the case of `COCC(=O)OC1CCn2c1nc1c2C(=O)C(C)=C(NC(C)=O)C1=O` (centres undefined), the GI50 in the test with U251 CNS is 4.36 µM; in the test with NCI/ADR-RES ovarian, 6.89 µM; in the test on COLO 205 colon, 8.72 µM; in the test on SN12C renal, 4.62 µM; in the test with OVCAR-8 ovarian, 2.92 µM; in the test with SF-539 CNS, 2.14 µM. Besides, in the test on HCT-116 colon, the GI50 is 4.08 µM. Also, the TGI is 17.4 µM in the test with U251 CNS; 22.3 µM in the test with NCI/ADR-RES ovarian; 49.2 µM in the test on A498 renal; 29.9 µM in the test with COLO 205 colon; 3.39 µM and 3.4 µM in the test with MDA-N; 16.8 µM with HS 578T breast. Moreover, the TGI with SN12C renal is 18.9 µM; in the test with OVCAR-8 ovarian, 12 µM; in the test on SF-539 CNS, 3.85 µM and 9.32 µM; with HOP-62 NSCLC, 41.1 µM; in the test with HCT-116 colon, 10.4 µM.
Turning to `Cc1ncc([N+](=O)[O-])n1CCNC(=O)CCCCn1ccnc1[N+](=O)[O-]`, the TGI in the test on U251 CNS, in the test with NCI/ADR-RES ovarian, with A498 renal, in the test with COLO 205 colon, in the test on MDA-N and with HS 578T breast was over 100 µM each time. The TGI in the test on SN12C renal, with OVCAR-8 ovarian, in the test with SF-539 CNS, with HOP-62 NSCLC and with HCT-116 colon was over 100 µM in each case.
Take `CC(C)(C)c1ccc2c(c1)OCc1n[nH]c(n1)COc1cc(C(C)(C)C)ccc1OCCOCCO2`: the TGI came to 13.7 µM in the test on U251 CNS; 12.4 µM in the test on NCI/ADR-RES ovarian; 21.3 µM with A498 renal; 12.6 µM in the test with COLO 205 colon; 12.3 µM in the test on MDA-N; 9.16 µM in the test on HS 578T breast. Besides, the TGI in the test on SN12C renal is 16.7 µM; in the test with OVCAR-8 ovarian, 14.3 µM; in the test on SF-539 CNS, 21.5 µM; in the test on HOP-62 NSCLC it was 19.2 µM; with HCT-116 colon, 15.5 µM.
For the molecule `O=S1(=O)c2ccccc2NC(=S)N1c1ccccc1`, the TGI was over 100 µM in the test on U251 CNS; over 100 µM in the test with NCI/ADR-RES ovarian; over 94.5 µM with A498 renal; over 100 µM in the test with COLO 205 colon; over 80.9 µM with MDA-N; over 100 µM in the test with HS 578T breast. The TGI in the test on SN12C renal, in the test on OVCAR-8 ovarian, in the test with SF-539 CNS, with HOP-62 NSCLC and in the test with HCT-116 colon was over 100 µM in each case.
For the molecule `Cc1ccc2c(c1)C(=O)/C(=C\c1ccc(Cl)cc1)CCS2(=O)=O`, the TGI is 9.09 µM in the test with U251 CNS; 5.52 µM in the test on NCI/ADR-RES ovarian; 26.4 µM in the test on A498 renal; 15.6 µM in the test with COLO 205 colon; over 36.5 µM in the test on MDA-N; over 31.5 µM with HS 578T breast. Moreover, the TGI in the test on SN12C renal was 8.37 µM; with OVCAR-8 ovarian, 5.39 µM; with SF-539 CNS, 4.52 µM; in the test on HOP-62 NSCLC, over 47.2 µM; in the test with HCT-116 colon, 3.51 µM.
For `O=C(O)c1cc2ccccc2c(S(=O)(=O)O)c1O`, the TGI in the test on U251 CNS, with NCI/ADR-RES ovarian, in the test with A498 renal, in the test on COLO 205 colon, with MDA-N and with HS 578T breast was over 100 µM in each case. Moreover, the TGI with SN12C renal, with OVCAR-8 ovarian, in the test with SF-539 CNS, with HOP-62 NSCLC and in the test on HCT-116 colon was over 100 µM each time.
For the molecule `CC(C)Cc1c(C#N)c(C#N)c(N)n1Cc1ccccc1`, the TGI in the test on U251 CNS, in the test on NCI/ADR-RES ovarian, in the test with A498 renal, with COLO 205 colon, with MDA-N and in the test with HS 578T breast was over 100 µM throughout. In addition, the TGI with SN12C renal, in the test on OVCAR-8 ovarian, with SF-539 CNS, with HOP-62 NSCLC and with HCT-116 colon was over 100 µM throughout.
